One compound from ChEMBL document CHEMBL2321799 (J Med Chem, 2013) can be followed below.

One series has as its target Ephrin type-A receptor 4 (Homo sapiens, UniProt P54764). Nature of the series: Displacement of ephrin-A1-Fc from EphA4 receptor Fc ectodomain (unknown origin) after 1 hr by ELISA. (ELISA stands for enzyme-linked immunosorbent assay.)
A further series concerns the target T1, Ephrin type-B receptor 6 (Homo sapiens, UniProt O15197).
T1 sequence (O15197 whole entry): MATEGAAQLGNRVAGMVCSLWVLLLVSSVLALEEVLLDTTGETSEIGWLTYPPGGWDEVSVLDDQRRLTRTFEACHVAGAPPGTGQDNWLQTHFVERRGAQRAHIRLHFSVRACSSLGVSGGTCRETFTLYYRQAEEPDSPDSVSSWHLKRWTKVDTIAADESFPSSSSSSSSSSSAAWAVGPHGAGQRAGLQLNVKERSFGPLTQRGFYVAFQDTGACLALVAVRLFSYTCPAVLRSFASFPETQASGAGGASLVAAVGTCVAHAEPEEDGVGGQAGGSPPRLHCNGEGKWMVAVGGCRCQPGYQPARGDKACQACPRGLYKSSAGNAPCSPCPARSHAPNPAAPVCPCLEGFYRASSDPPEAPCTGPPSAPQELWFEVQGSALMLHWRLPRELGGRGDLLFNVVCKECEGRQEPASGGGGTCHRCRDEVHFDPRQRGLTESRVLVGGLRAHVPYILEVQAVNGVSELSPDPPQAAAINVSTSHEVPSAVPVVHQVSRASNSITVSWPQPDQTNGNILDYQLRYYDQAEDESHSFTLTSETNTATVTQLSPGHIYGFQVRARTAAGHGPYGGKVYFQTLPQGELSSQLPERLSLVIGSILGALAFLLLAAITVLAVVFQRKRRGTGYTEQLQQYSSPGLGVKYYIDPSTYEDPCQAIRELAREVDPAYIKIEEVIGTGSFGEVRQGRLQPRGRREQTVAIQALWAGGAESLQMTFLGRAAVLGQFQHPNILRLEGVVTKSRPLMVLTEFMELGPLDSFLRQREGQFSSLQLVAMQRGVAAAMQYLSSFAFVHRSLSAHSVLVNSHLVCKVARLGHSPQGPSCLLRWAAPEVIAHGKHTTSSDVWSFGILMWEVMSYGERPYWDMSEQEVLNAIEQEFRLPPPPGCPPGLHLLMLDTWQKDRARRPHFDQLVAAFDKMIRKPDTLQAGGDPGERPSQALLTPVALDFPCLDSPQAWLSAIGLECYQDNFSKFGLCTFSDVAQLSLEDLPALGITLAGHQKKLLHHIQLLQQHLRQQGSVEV
Briefly: Displacement of ephrin-B1-Fc from EphB6 receptor Fc ectodomain (unknown origin) after 1 hr by ELISA.

For a further series, the target named is T2, Ephrin type-A receptor 6 (Homo sapiens, UniProt Q9UF33).
T2 sequence (Q9UF33 whole entry): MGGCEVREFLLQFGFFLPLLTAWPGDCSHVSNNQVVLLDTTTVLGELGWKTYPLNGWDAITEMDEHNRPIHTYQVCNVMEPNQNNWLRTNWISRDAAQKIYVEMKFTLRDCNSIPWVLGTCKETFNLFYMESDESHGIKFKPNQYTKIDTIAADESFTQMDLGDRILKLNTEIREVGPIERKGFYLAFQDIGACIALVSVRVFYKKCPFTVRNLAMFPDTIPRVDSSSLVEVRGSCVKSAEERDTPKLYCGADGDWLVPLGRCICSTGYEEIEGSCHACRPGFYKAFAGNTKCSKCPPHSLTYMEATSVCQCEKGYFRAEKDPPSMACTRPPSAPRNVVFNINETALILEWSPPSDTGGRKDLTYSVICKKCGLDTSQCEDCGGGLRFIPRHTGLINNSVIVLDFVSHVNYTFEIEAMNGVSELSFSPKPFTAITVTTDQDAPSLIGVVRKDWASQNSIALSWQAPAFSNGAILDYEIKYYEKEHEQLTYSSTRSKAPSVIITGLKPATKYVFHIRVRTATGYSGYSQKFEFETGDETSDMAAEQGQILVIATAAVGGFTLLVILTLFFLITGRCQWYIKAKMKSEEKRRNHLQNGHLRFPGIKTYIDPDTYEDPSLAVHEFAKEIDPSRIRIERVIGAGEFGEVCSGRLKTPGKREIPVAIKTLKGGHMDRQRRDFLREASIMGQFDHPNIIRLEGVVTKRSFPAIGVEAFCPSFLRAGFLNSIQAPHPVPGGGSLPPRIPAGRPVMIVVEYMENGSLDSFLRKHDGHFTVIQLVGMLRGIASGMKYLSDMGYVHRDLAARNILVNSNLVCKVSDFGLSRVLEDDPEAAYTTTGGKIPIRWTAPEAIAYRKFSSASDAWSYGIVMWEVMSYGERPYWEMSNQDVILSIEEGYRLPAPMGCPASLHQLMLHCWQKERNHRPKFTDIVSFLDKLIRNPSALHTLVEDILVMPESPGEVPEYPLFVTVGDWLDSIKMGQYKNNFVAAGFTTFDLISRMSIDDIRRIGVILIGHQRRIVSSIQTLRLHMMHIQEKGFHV
Nature of the series: Displacement of ephrin-A1-Fc from EphA6 receptor Fc ectodomain (unknown origin) after 1 hr by ELISA.

The subject of a further series is PC-3. Nature of the series: Cytotoxicity against human PC3 cells assessed as LDH release at 25 to 100 uM after 2 hrs by ELISA. The settings on record: pc-3, 2 h. It counts as cell-based. For orientation: LDH leaks from cells whose membrane has failed.

Ephrin type-A receptor 4, sequence (P54764 whole entry, the tested form may be a part): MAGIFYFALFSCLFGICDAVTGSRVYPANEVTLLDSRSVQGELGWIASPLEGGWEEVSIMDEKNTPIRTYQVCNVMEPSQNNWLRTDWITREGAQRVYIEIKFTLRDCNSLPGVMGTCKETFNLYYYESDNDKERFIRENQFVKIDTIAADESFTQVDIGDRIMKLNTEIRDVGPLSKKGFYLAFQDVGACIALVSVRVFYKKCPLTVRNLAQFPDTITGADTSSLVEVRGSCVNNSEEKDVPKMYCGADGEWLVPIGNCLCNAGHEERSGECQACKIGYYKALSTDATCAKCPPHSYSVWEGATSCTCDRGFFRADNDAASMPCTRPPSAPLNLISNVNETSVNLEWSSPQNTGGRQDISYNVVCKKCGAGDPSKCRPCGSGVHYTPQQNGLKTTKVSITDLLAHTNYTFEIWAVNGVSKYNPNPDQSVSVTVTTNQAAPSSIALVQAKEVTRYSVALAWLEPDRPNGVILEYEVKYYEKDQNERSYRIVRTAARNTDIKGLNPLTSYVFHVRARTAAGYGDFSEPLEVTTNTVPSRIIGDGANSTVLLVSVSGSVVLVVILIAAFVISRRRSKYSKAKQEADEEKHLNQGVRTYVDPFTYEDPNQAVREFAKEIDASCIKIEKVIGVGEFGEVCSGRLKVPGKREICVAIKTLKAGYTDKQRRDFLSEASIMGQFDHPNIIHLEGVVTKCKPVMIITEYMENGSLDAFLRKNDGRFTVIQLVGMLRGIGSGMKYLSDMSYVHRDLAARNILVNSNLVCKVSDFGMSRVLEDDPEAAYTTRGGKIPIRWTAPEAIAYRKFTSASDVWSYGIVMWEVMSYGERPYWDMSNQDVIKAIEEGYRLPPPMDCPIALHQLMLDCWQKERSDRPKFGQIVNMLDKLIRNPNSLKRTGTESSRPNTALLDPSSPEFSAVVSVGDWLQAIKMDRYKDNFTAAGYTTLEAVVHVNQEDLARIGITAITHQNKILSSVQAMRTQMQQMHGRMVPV

For the compound `C[C@H](CCC(=O)N[C@@H](Cc1c[nH]c2ccccc12)C(=O)O)[C@H]1CC[C@H]2[C@@H]3CC[C@@H]4C[C@H](O)CC[C@]4(C)[C@H]3CC[C@]12C`, the IC50 (commonly the midpoint of a concentration-inhibition curve) at Ephrin type-A receptor 4 is 2700 nM; on Ephrin type-B receptor 6, 5800 nM; on Ephrin type-A receptor 6 it was 1500 nM. Besides, the Activity entry with PC-3 is given as “Non-toxic”.
